# Where “and” joins values, the source holds several entries; their conditions need not be identical. Equal entries are not always repeated.
# Assays:
# [1] = tested on: JNK; conditions: cited from earlier work
# [2] = tested on: SW1 tumors; assay: cDNA microarray gene expression profiling of SW1 tumors; format: in vivo, mouse; conditions: down regulated, hybridizations #1-#4, listed as ATFp2
# Description: FIGS. 8A and 8B show gene profiling analysis of SW1 tumors expressing the ATF2^51-100 peptide. Tumors generated, in the absence or presence of a peptide, were used as source of mRNA for array analysis of 10K mouse genes (see Example 5). […] In all cases, the data represent analyses carried out 4 times from 4 different pools of tumors.
# To elucidate the molecular pathways affected by expression of the ATF2^51-100 peptide, we used cDNA microarray analysis to compare the RNA expression profiles of SW1 tumors that express this peptide or a control vector (FIG. 8A). The 10k mouse Gem 2 gene set (Incyte Genomics Inc, Palo Alto, Calif.) was printed at the NCI on poly-L-lysine-coated glass using a Biorobotics TASII arrayer (Cambridge, England). All protocols for manufacturing and hybridization of microarrays are posted on the NCI web site (see, e.g., nciarray.nci.nih.gov). Approximately 20 μg of total RNA were used in the reverse transcription reaction to directly label the probe with Cy-5 dUTP or Cy-3 dUTP (Amersham). Hybridizations were performed at 65° C. for 12-18 h in a hybridization volume of 35 μL. The hybridized arrays were scanned using an Axon GenePix 4000 scanner (Union City, Calif.) and fluorescence data were collected using the GenePix software.
# mRNA was prepared from a pool of 4 tumors obtained from two different experiments. In both cases, tumors were excised 2 weeks after subcutaneous injection of cells. Because the fluorescently labeled Cy dyes may incorporate into the reverse-transcribed cDNA with different efficiencies, RNA isolated from both cell types was always labeled with both combinations of Cy dyes. […] SW1 vector control cells were labeled with Cy-3 (F532) and the SW1-ATF 51-100 cells were labeled with Cy-5 (F635).
substance,measurement,setting,value
"ATF2^51-100: amino-terminal peptide of ATF2, amino acid residue 51 to 100 (about a 50 amino acid peptide), expressed in tumor cells (MTLKFGPARNDSVIVADQTPTPTRFLKNCEEVGLFNELASPFENEFKKAS; UniProt P15336 51-100, looked up, fragment)",basal JNK activity,[1],increased basal JNK activity
same,binding to JNK,[1],binds to JNK
same,Ratio ATFp2-Cy5 vs parental control-Cy3: Mt2 (metallothionein 2),[2]; IMAGE: 334351,0.3874 and 0.3888 and 0.4649 and 0.5780
same,Ratio ATFp2-Cy5 vs parental control-Cy3: Hadh (hydroxyacyl-Coenzyme A dehydrogenase),[2]; IMAGE: 368571,0.3738 and 0.3752 and 0.5471 and 0.6286
same,Ratio ATFp2-Cy5 vs parental control-Cy3: Crabp1 (cellular retinoic acid binding protein I),[2]; IMAGE: 406272,0.3248 and 0.361 and 0.3150 and 0.3569
same,Ratio ATFp2-Cy5 vs parental control-Cy3: RIKEN cDNA 2900002K07 gene,[2]; IMAGE: 516935,0.3227 and 0.3239 and 0.2740 and 0.3014
same,Ratio ATFp2-Cy5 vs parental control-Cy3: Ptk2 (PTK2 protein tyrosine kinase 2),[2]; IMAGE: 577544,0.3803 and 0.3817 and 0.3913 and 0.4599
same,Ratio ATFp2-Cy5 vs parental control-Cy3: Ifit1 (interferon-induced protein with tetratricopeptide repeats 1),[2]; IMAGE: 616653,0.2354 and 0.2363 and 0.2637 and 0.3054
same,Ratio ATFp2-Cy5 vs parental control-Cy3: ESTs,[2]; IMAGE: 619632,0.4707 and 0.4724 and 0.3928 and 0.6046
same,Ratio ATFp2-Cy5 vs parental control-Cy3: Scya12 (small inducible cytokine A12),[2]; IMAGE: 620800,0.2911 and 0.2922 and 0.3318 and 0.4279
same,Ratio ATFp2-Cy5 vs parental control-Cy3: ESTs,[2]; IMAGE: 621129,0.4938 and 0.4955 and 0.3268 and 0.3091
same,Ratio ATFp2-Cy5 vs parental control-Cy3: Casp6 (caspase 6),[2]; IMAGE: 636228,0.3777 and 0.3791 and 0.4947 and 0.6368
same,Ratio ATFp2-Cy5 vs parental control-Cy3: Igh-1 (immunoglobulin heavy chain 1 (serum IgG2a)),[2]; IMAGE: 636695,0.3565 and 0.3578 and 0.4847 and 0.6503
same,Ratio ATFp2-Cy5 vs parental control-Cy3: S100a9 (S100 calcium-binding protein A9 (calgranulin B)),[2]; IMAGE: 720190,0.3486 and 0.3498 and 0.362 and 0.3547
same,Ratio ATFp2-Cy5 vs parental control-Cy3: Jsp18 (ubiquitin specific protease 18),[2]; IMAGE: 751642,0.3213 and 0.3225 and 0.2989 and 0.2958
same,"Ratio ATFp2-Cy5 vs parental control-Cy3: Plat (plasminogen activator, tissue)",[2]; IMAGE: 836124,0.4074 and 0.4089 and 0.4019 and 0.5488
same,Ratio ATFp2-Cy5 vs parental control-Cy3: G0s2 (G0/G1 switch gene 2),[2]; IMAGE: 864447,0.4421 and 0.4583 and 0.383 and 0.3949
same,Ratio ATFp2-Cy5 vs parental control-Cy3: Xlr (X-linked lymphocyte-regulated complex),[2]; IMAGE: 1022928,0.1598 and 0.1572 and 0.1540 and 0.1537
same,"Ratio ATFp2-Cy5 vs parental control-Cy3: Lgals7 (lectin galactose binding, soluble 7)",[2]; IMAGE: 1023899,0.4381 and 0.4397 and 0.4481 and 0.4781
same,"Ratio ATFp2-Cy5 vs parental control-Cy3: Mus musculus, clone MGC: 19199 IMAGE: 4236882, mRNA, complete cds",[2]; IMAGE: 1037652,0.4768 and 0.4785 and 0.4402 and 0.4792
same,Ratio ATFp2-Cy5 vs parental control-Cy3: Isg15 (interferon-stimulated protein (15 kDa)),[2]; IMAGE: 1068714,0.321 and 0.4337 and 0.4643 and 0.5141
same,Ratio ATFp2-Cy5 vs parental control-Cy3: Ifit3 (interferon-induced protein with tetratricopeptide repeats 3),[2]; IMAGE: 1210036,0.4750 and 0.4768 and 0.3824 and 0.3361
same,Ratio ATFp2-Cy5 vs parental control-Cy3: Ensa (endosulfine alpha),[2]; IMAGE: 1278511,0.4501 and 0.4517 and 0.4544 and 0.4479
same,Ratio ATFp2-Cy5 vs parental control-Cy3: Myo5b (myosin Vb),[2]; IMAGE: 1378935,0.2748 and 0.2758 and 0.2551 and 0.2439
